Data on 34 compounds can be found in ChEMBL document CHEMBL5500367, “Improving tumor sensitivity by the introduction of an ester chain to triaryl derivatives targeting PD-1/PD-L1” (Eur J Med Chem, 2024).

In series [1] the target is Programmed cell death protein 1/Programmed cell death 1 ligand 1 (Homo sapiens, UniProt Q9NZQ7). Description: Inhibition of PD-1/PD-L1 (unknown origin) interaction incubated for 15 mins by HTRF assay. The class given is protein-complex assay.
Series [2] relates to MDA-MB-231. Kind of series: Cytotoxicity against human MDA-MB-231 cells assessed as inhibition of cell viability incubated for 72 hrs by MTT assay. The conditions noted are these: MDA-MB-231, 72 h. The class given is functional, cell-based. (Formazan colour is commonly taken as a measure of viable cells.)
Series [3] deals with NCI-H1299. Description: Cytotoxicity against human NCI-H1299 cells assessed as inhibition of cell viability incubated for 72 hrs by MTT assay. The class given is functional, cell-based. The conditions noted are these: NCI-H1299, 72 h.
The test system of series [4] is HCT-116. Description: Cytotoxicity against human HCT-116 cells assessed as inhibition of cell viability incubated for 72 hrs by MTT assay. The class given is functional, cell-based. The conditions noted are these: HCT-116, 72 h.
Series [5] deals with A549. Kind of series: Cytotoxicity against human A549 cells assessed as inhibition of cell viability incubated for 72 hrs by MTT assay. The class given is functional, cell-based. The conditions noted are these: A549, 72 h.
In series [6] the test system is A549. Description: Cytotoxicity against human A549 cells assessed as decrease in cell viability at 2.5 to 10 uM incubated for 48 hrs by MTT assay. The conditions noted are these: dose 2.5-10 µM. It counts as functional, cell-based.
Series [7] in a line: Cytotoxicity against human PBMC cells assessed as decrease in cell viability at 2.5 to 10 uM incubated for 48 hrs by MTT assay. The class given is toxicity, cell-based. As to conditions: dose 2.5-10 µM.
For series [8], the system named is A549. Kind of series: Cytotoxicity against human A549 cells assessed as inhibition of cell viability at 10 uM preincubated with A549 cells for 2 hrs followed by co-culture with CD3/CD28/CD2-activated PBMC cells for 48 hrs by MTT assay relative to control. The class given is functional. As to conditions: time 50 hrs.
Series [9] has as its system 4T1. Description: Antitumor activity against mouse 4T1 cells allografted in BALB/c mouse at 10 mg/kg, ip treated for 21 days consecutively relative to control. It counts as functional. The conditions noted are these: 4T1, 504 h, time 21 day, read-out: TGI.
The test system of series [10] is 4T1. Kind of series: Antitumor activity against mouse 4T1 cells allografted in BALB/c mouse at 20 mg/kg, ip treated for 21 days consecutively relative to control. The class given is functional. The conditions noted are these: 4T1, 504 h, time 21 day, read-out: TGI.
The nature of series [11]: Toxicity in BALB/c mouse allografted with mouse 4T1 cells assessed as body weight loss at 10 to 20 mg/kg, ip treated for 21 days consecutively. It counts as organism-based. The conditions noted are these: in vivo, 504 h, dose 10-20 mg/kg, time 21 day.
Series [12] is described as follows: Toxicity in BALB/c mouse allografted with mouse 4T1 cells assessed as animal death at 10 to 20 mg/kg, ip treated for 21 days consecutively. The class given is organism-based. The conditions noted are these: in vivo, 504 h, dose 10-20 mg/kg, time 21 day.
Series [13] in a line: Toxicity in BALB/c mouse allografted with mouse 4T1 cells assessed as drug tolerance at 10 to 20 mg/kg, ip treated for 21 days consecutively. As to conditions: in vivo, 504 h, dose 10-20 mg/kg, time 21 day. It counts as organism-based.
Series [14] has as its system 4T1. Kind of series: Antitumor activity against mouse 4T1 cells allografted in BALB/c mouse assessed as increase in CD8+ cell infiltration administered intraperitoneally treated for 21 days consecutively by IHC analysis. The class given is functional, cell-based. The conditions noted are these: dose 10-20 mg/kg, route ip, time 21.0 day.
The nature of series [15]: Metabolic stability in human liver microsomes assessed as half life by LC-MS/MS analysis. It counts as ADME, Microsome. (Microsomes from liver hold many membrane-bound enzymes, among them those of drug oxidation.)
Series [16] in a line: Metabolic stability in human liver microsomes assessed as intrinsic clearance by LC-MS/MS analysis. The class given is ADME, Microsome.
The target in series [17] is Programmed cell death 1 ligand 1 (Homo sapiens, UniProt Q9NZQ7).
Programmed cell death 1 ligand 1, sequence (Q9NZQ7 whole entry): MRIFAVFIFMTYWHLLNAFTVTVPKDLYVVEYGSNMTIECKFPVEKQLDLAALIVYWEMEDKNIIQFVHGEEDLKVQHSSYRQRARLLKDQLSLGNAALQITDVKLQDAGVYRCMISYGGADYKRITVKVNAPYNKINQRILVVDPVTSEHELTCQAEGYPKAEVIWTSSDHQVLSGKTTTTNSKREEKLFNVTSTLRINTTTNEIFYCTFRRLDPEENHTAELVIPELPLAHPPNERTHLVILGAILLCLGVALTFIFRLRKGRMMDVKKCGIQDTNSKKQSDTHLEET
Description: Binding affinity to CM5 chip immobilized recombinant human PD-L1 assessed as association constant by SPR analysis

The source made the active and inactive calls. The rule behind the calls is not given here. Some results are limits rather than exact numbers.

Programmed cell death protein 1/Programmed cell death 1 ligand 1, sequence (Q15116 whole entry): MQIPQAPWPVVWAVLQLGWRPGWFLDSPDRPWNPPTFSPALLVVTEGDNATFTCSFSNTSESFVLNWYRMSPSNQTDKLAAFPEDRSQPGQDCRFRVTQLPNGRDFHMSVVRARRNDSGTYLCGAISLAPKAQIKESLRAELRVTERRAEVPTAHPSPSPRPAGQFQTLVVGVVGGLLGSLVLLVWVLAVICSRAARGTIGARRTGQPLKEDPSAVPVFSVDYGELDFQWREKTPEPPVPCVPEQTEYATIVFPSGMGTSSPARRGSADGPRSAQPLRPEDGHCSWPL
Programmed cell death protein 1/Programmed cell death 1 ligand 1, sequence (Q9NZQ7 whole entry): as the sequence (Q9NZQ7 whole entry) above

One may read the IC50 as the concentration at which inhibition is half-maximal. Turning to `COc1cc(OC(=O)c2cccc(-c3ccccc3)c2C)ccc1CN[C@@H](CO)C(=O)O`, the IC50 in series [1] is 27.3 nM; in [2], greater than 20000 nM; in [3], greater than 20000 nM; in [4], greater than 20000 nM; in series [5], greater than 20000 nM. Also, the result in series [6] was inactive. In series [7], the Activity result was “Non-Toxic”.

`COc1cc(OC(=O)c2cccc(-c3ccccc3)c2C)ccc1CNCCO` gave an IC50 in [1] of 263 nM.

In the case of `Cc1c(C(=O)Oc2ccc(CN[C@H](CO)C(=O)O)cc2)cccc1-c1ccccc1`, in [1], the IC50 was determined as 55.1 nM.

The compound `Cc1c(C(=O)Oc2ccc(CN[C@@H](CO)C(=O)O)c(OCc3cccc(C#N)c3)c2C)cccc1-c1ccccc1` gave an IC50 in series [1] of 231 nM.

Compound `COc1cc(OC(=O)c2cccc(-c3ccccc3)c2C)cc(OC)c1CNCC(O)CO` (configuration not stated) showed an IC50 in series [1] of 228 nM.

Consider `COc1cc(OC(=O)c2cccc(-c3ccccc3)c2C)ccc1CNC(CO)CO`, for which the IC50 was 27.1 nM in series [1]; greater than 20000 nM in series [2]; 11400 nM in series [3]; 12200 nM in series [4]; 18800 nM in [5].

The term inhibition denotes the share of the control response that was lost under treatment. On to `Cc1c(C(=O)Oc2ccc(CN3C[C@H](O)C[C@H]3C(=O)O)c(OCc3cccc(C#N)c3)c2)cccc1-c1ccccc1`, for which the IC50 in series [1] was 1.21 nM; in series [2], greater than 20000 nM; in series [3] it was greater than 20000 nM; in series [4], greater than 20000 nM; in [5] it was greater than 20000 nM. In series [6], the result was inactive. Further, the Activity result was “Non-Toxic” in [7]; “Non-Toxic” in series [11]; “Non-Toxic” in series [12]; “Non-Toxic” in [13]; “Dose-Dependent Effect” in [14]. The inhibition at 10 µM in series [8] is 76.5%. Besides, the inhibition in vivo at 10 mg/kg in series [9] amounted to 49.4%. In addition, the inhibition in vivo at 20 mg/kg in series [10] was found to be 67.8%. In addition, in [15], the t1/2 was found to be 18.8 min. Also, the CLH in [16] was found to be 100 µL/min/mg. Also, the Ka in [17] was 7.9 10^5/M/s.

Turning to `Cc1c(COc2cc(OCc3cccc(C#N)c3)c(CN3C[C@H](O)C[C@@H]3C(=O)O)cc2Cl)cccc1-c1ccc2c(c1)OCCO2`, in series [6], the outcome was inactive. In addition, the Activity entry in [7] is listed as “Non-Toxic”.

As to `Cc1c(C(=O)Oc2cc(OCc3cccc(C#N)c3)c(CNC(CO)CO)cc2Cl)cccc1-c1ccccc1`, the midpoint of inhibition in series [1], the IC50, lay at 118 nM.

In series [1], `COc1cc(OC(=O)c2cccc(-c3ccccc3)c2C)ccc1CNCCCO` came in with an IC50 greater than 1000 nM.

As for `CC(=O)NCCNCc1ccc(OC(=O)c2cccc(-c3ccccc3)c2C)cc1OCc1cccc(C#N)c1`, in [1], the IC50 is 506 nM.

In series [1], `Cc1cc(OC(=O)c2cccc(-c3ccccc3)c2C)cc(OCc2cccc(C#N)c2)c1CN[C@H](CO)C(=O)O` gave an IC50 of 39.5 nM.

On to `Cc1c(C(=O)Oc2ccc(CNC(CO)(CO)CO)cc2)cccc1-c1ccccc1`, for which, in series [1], the half-maximal inhibitory concentration (IC50) was 25.6 nM.

For the compound `Cc1c(C(=O)Oc2ccc(CNC(CO)(CO)CO)c(OCc3cccc(C#N)c3)c2C)cccc1-c1ccccc1`, the IC50 in [1] worked out at 109 nM.

For `Cc1cc(OC(=O)c2cccc(-c3ccccc3)c2C)ccc1CN[C@@H](CO)C(=O)O`, the concentration for half-maximal inhibition (IC50) in series [1] was 2.25 nM; in [2], greater than 20000 nM; in series [3], greater than 20000 nM; in [4], greater than 20000 nM; in [5] it was greater than 20000 nM. Further, in series [6], the outcome was inactive. In [7], the Activity entry is reported as “Non-Toxic”. The Ka in series [17] is 5.31 10^5/M/s.

Regarding `Cc1c(C(=O)Oc2ccc(CN[C@H](CO)C(=O)O)c(OCc3cccc(C#N)c3)c2)cccc1-c1ccccc1`, in [1], the 50% inhibitory concentration (IC50) turned out to be 24 nM.

Take `Cc1c(C(=O)Oc2ccc(CNC(CO)(CO)CO)c(Br)c2)cccc1-c1ccccc1`: the concentration for half-maximal inhibition (IC50) in series [1] was 2.62 nM; in [2] it was greater than 20000 nM; in [3], 18700 nM; in series [4] it was greater than 20000 nM; in series [5], greater than 20000 nM. Also, in [6], the result was inactive. In [7], the Activity result was “Non-Toxic”. Besides, the Ka in [17] is 1.16 10^5/M/s.

`Cc1cc(OC(=O)c2cccc(-c3ccccc3)c2C)cc(OCc2cccc(C#N)c2)c1CN[C@@H](CO)C(=O)O` displayed an IC50 in series [1] of 64.3 nM.

On to `COc1cc(OCc2cccc(-c3ccccc3)c2C)cc(OC)c1CN1CCCC[C@H]1C(=O)O`, for which, in series [6], the outcome was inactive. The Activity entry in [7] is on record as “Non-Toxic”. In addition, the inhibition in vivo at 20 mg/kg in series [10] was 33.1%. In addition, in [15], the t1/2 came out at 14.2 min. Besides, the CLH in series [16] turned out to be 216 µL/min/mg. In series [17], the Ka was 1.17 10^5/M/s.

In the case of `Cc1c(C(=O)Oc2ccc(CN[C@@H](CO)C(=O)O)c(OCc3cccc(C#N)c3)c2)cccc1-c1ccccc1`, the concentration for half-maximal inhibition (IC50) in series [1] is greater than 1000 nM.

Regarding `COc1cc(OC(=O)c2cccc(-c3ccccc3)c2C)ccc1CNC[C@H](O)CO`, it took 381 nM to reach half-maximal inhibition in series [1] (IC50).

Regarding `Cc1c(C(=O)Oc2ccc(CNCCO)c(OCc3cccc(C#N)c3)c2)cccc1-c1ccccc1`, the IC50 in series [1] was found to be 13.2 nM; in [2] it was 7680 nM; in [3], 7400 nM; in series [4], 7350 nM; in [5] it was 12600 nM. In addition, the outcome in series [6] was inactive. Moreover, the Activity result in [7] was “Non-Toxic”.

In series [1], `Cc1cc(OC(=O)c2cccc(-c3ccccc3)c2C)cc(OCc2cccc(C#N)c2)c1CNCCO` returned an IC50 of 271 nM.

`Cc1c(C(=O)Oc2ccc(CN[C@@H](CO)C(=O)O)cc2)cccc1-c1ccccc1`: the concentration for half-maximal inhibition (IC50) in series [1] was 17.5 nM; in series [2], greater than 20000 nM; in series [3], greater than 20000 nM; in series [4] it was greater than 20000 nM; in series [5] it was greater than 20000 nM. In addition, the outcome in series [6] was inactive. The Activity entry in series [7] is “Non-Toxic”.

Take `COc1cc(OC(=O)c2cccc(-c3ccccc3)c2C)ccc1CN1C[C@H](O)C[C@H]1C(=O)O`: the IC50 in series [1] was determined as 113 nM.

Turning to `Cc1cc(OC(=O)c2cccc(-c3ccccc3)c2C)cc(OCc2cccc(C#N)c2)c1CNC(CO)(CO)CO`, the IC50 in [1] turned out to be 133 nM.

Take `COc1cc(OC(=O)c2cccc(-c3ccccc3)c2C)ccc1CNCCN(C)C`: 358 nM corresponded to half-maximal inhibition in series [1] (IC50).

As for `Cc1cc(OC(=O)c2cccc(-c3ccccc3)c2C)cc(OCc2cccc(C#N)c2)c1CNC[C@H](O)CO`, in series [1], half-maximal inhibition (IC50) required 254 nM.

In series [1], `COc1cc(OC(=O)c2cccc(-c3ccccc3)c2C)ccc1CN1CCCC[C@H]1C(=O)O` showed a 50% inhibitory concentration (IC50) greater than 1000 nM.

For the compound `COc1cc(OC(=O)c2cccc(-c3ccccc3)c2C)ccc1CN1CCC(O)CC1`, in [1], the midpoint of inhibition, the IC50, lay at 78.6 nM.

Turning to `Cc1cc(OC(=O)c2cccc(-c3ccccc3)c2C)ccc1CNC(CO)(CO)CO`, the IC50 in series [1] worked out at 1.98 nM; in [2] it was 18300 nM; in series [3] it was 16500 nM; in series [4], 12200 nM; in [5], 18600 nM. Besides, in series [17], the Ka was 4.37 10^5/M/s.

`COc1cc(OC(=O)c2cccc(-c3ccccc3)c2C)ccc1CNC(CO)(CO)CO` returned an IC50 in series [1] of 72.4 nM.

As to `COc1cc(OC(=O)c2cccc(-c3ccccc3)c2C)ccc1CNCCNC(C)=O`, the IC50 in series [1] was found to be 893 nM.

Compound `COc1cc(OC(=O)c2cccc(-c3ccccc3)c2C)ccc1CNC[C@@H](O)CO` returned a 50% inhibitory concentration (IC50) in [1] of 302 nM.
